Reference: patent US20020076452A1, “Combinations of sesquiterpene lactones and ditepene lactones or triterpenes for synergistic inhibition of cyclooxygenase-2” (Ashni Naturaceuticals, Inc., priority 2000, published 2002)

Experiments:
COX-2 [1] = assay: Inhibition of COX-2 enzyme protein expression in stimulated Jurkat cells (western blot); format: cell-based, Human; details: in the absence and presence of arachidonic acid, dose-range tested
Source text: Chemicals: Anti-COX-2 antibodies may be purchased from Upstate Biotechnology (Lake Placid, N.Y.). Parthenolide and andrographolide may be obtained from Sigma (St. Louis, Mo.). Arachidonic acid (AA), PMA and all other chemical may also be purchased from Sigma and are of the highest purity commercially available.
Human T cell lines: The Jurkat cell line is useful as a model for human T cells and may be obtained from the American Type Culture Collection (Bethesda, Md.). COX-2 is inducible in the Jurkat cell by PMA.
Cell plating: The Jurkat cells are propagated in suspension according to the instructions of the supplier. For experimentation, cells are seeded from a log-phase culture at a density of 1×10^5 cells per mL in 100 mm plates, 20 mL per plate, 3 plates per treatment. Serum concentration in the test medium is maintained at 0.5%.
Complete transfers are accomplished in 25-30 minutes at 500 mA. Membranes used for blotting are blocked by incubating in TBS (Tris buffered saline, 50 mM Tris, 150 mM NaCl, pH 7.5) containing 5% nonfat dry milk for 30 minutes at room temperature. COX-2 protein is visualized by incubation of the blots with the anti-COX-2 antibody in TBST (0.5% Tween 20 in TBS) for two hours and then a second incubation at room temperature with alkaline phosphatase-conjugated secondary antibody diluted 1:1000 in TBST for two hours. The enzymatic reaction is developed for 15 minutes. The molecular weight of COX-2 is estimated by adding a molecular weight standard to reference lanes and staining the membrane filters with amido black 10B.
Blots are translated into TIFF-formatted files with a Microtech 600GS scanner and quantified using Scan Analysis (BIOSOFT, Cambridge, UK). Summary scans are then printed and peak heights are measured directly from the figure. One density unit (Du) is defined as one mm of the resulting peak height.
Appropriate controls receive solvent only. […] Twenty-four hours after treatment, the cells are harvested, lysed and western blotting is done for the determination of COX-2 protein expression.

COX-2 [2] = biological target: T1, COX-2 (Mus musculus, UniProt Q05769); assay: cell-based
T1 sequence (Q05769 18-604): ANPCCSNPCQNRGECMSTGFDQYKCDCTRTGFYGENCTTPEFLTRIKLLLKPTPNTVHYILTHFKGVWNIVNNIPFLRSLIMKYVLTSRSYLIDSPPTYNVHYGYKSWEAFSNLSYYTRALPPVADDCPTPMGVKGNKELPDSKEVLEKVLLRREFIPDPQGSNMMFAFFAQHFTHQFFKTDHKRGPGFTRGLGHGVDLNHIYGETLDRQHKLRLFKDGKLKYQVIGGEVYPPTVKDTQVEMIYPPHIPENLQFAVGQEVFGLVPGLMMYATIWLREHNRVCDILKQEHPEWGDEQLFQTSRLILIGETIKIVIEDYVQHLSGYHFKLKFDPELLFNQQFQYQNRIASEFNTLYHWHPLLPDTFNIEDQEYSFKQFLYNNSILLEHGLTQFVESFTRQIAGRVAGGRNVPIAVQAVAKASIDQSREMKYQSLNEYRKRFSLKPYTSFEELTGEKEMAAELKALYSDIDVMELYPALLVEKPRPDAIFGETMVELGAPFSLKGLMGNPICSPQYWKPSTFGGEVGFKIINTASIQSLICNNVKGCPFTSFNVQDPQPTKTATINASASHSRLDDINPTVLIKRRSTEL
Procedure: Inhibition of COX-2 Mediated Production of PGE2 in RAW 264.7 Cells
General Procedure—RAW 264.7 cells, obtained from ATCC, were grown in DMEM medium and maintained in log phase growth.
On day one of the experiment, the log phase 264.7 cells were plated at 8×10^4 cells per well in 0.2 mL growth medium per well in a 96-well tissue culture plate. After 6 to 8 hours post plating, 100 μL of growth medium from each well was removed and replaced with 100 μL fresh medium. A 1.0 mg/mL solution of LPS, which was used to induce the expression of COX-2 in the RAW 264.7 cells, was prepared by dissolving 1.0 mg of LPS in 1 mL DMSO.
On day two of the experiment, the test materials were prepared as 1000×stock in DMSO. For example, if the final concentration of the test material was to be 10 μg/mL, a 10 mg/mL stock was prepared by dissolving 10 mg of the test material in 1 mL of DMSO. Fresh test materials were prepared on day 2 of the experiment. In 1.7 mL microfuge tubes, 1 mL DMEM without FBS was added to obtain test concentrations of 0.05, 0.10,0.5, and 1.0 μg/mL. 2 μL of the 1000×DMSO stock of the test material was added to the 1 mL of medium without FBS. The tube contained the final concentration of the test material was concentrated 2-fold. The tube was placed in incubator for 10 minutes to equilibrate.
One-hundred mL of medium was removed from each well of the cell plates prepared on day one. […]

Row | SMILES | Inhibition of COX-2 protein expression (COX-2 [1]) | IC50 (COX-2 [2]) [µM]
1 | C=C1CC[C@@H]2[C@](C)(CO)[C@H](O)CC[C@@]2(C)[C@@H]1C/C=C1/C(=O)OC[C@H]1O [Andrographolide, andrographolide] | little effect | 34.8
2 | CC1(C)CC[C@]2(C(=O)O)CC[C@]3(C)C(=CC[C@@H]4[C@@]5(C)CC[C@H](O)C(C)(C)[C@@H]5CC[C@]43C)[C@@H]2C1 [Oleanolic acid, oleanolic acid] | does not inhibit | –
3 | C[C@H]1[C@H](C)CC[C@]2(C(=O)O)CC[C@]3(C)C(=CC[C@@H]4[C@@]5(C)CC[C@H](O)C(C)(C)[C@@H]5CC[C@]43C)[C@H]12 [Ursolic acid, ursolic acid] | does not inhibit | 35.3
